What all share (type): functional
The test system of assay [1] is Staphylococcus aureus. Kind of assay: Antimicrobial activity against methicillin-resistant Staphylococcus aureus CGK1 by Etest method.
Assay [2] has as its system Staphylococcus aureus. Kind of assay: Antimicrobial activity against methicillin-resistant Staphylococcus aureus CGK2 by Etest method.
The test system of assay [3] is Staphylococcus aureus. In words: Antimicrobial activity against methicillin-resistant Staphylococcus aureus CGK3 by Etest method.
Assay [4] concerns Staphylococcus aureus. Kind of assay: Antimicrobial activity against methicillin-resistant Staphylococcus aureus CGK4 by Etest method.
Assay [5] concerns Staphylococcus aureus. In words: Antimicrobial activity against methicillin-resistant Staphylococcus aureus CGK5 by Etest method.
Assay [6] deals with Staphylococcus aureus. In words: Antimicrobial activity against methicillin-resistant Staphylococcus aureus CGK6 by Etest method.
The test system of assay [7] is Staphylococcus aureus. Kind of assay: Antimicrobial activity against methicillin-resistant Staphylococcus aureus CGK7 by Etest method.
The test system of assay [8] is Staphylococcus aureus. In words: Antimicrobial activity against methicillin-resistant Staphylococcus aureus CGK8 by Etest method.

The record followed here is ChEMBL document CHEMBL1649320, “Development of daptomycin nonsusceptibility with heterogeneous vancomycin-intermediate resistance and oxacillin susceptibility in methicillin-resistant Staphylococcus aureus during high-dose daptomycin treatment” (2010).

Values after ≈ are worked out from the molar mass of the structure shown.

For the compound `CC(=O)N[C@@H]1[C@H](Oc2c3cc4cc2Oc2ccc(cc2Cl)[C@@H](O[C@@H]2O[C@@H](CO)[C@@H](O)[C@H](O)[C@@H]2NC(C)=O)[C@@H]2NC(=O)[C@H](NC(=O)[C@@H]4NC(=O)[C@H]4NC(=O)[C@@H](Cc5ccc(c(Cl)c5)O3)NC(=O)[C@H](N)c3ccc(O)c(c3)Oc3cc(O)cc4c3)c3ccc(O)c(c3)-c3c(O[C@H]4O[C@H](CO)[C@@H](O)[C@@H](O)[C@@H]4O)cc(O)cc3[C@@H](C(=O)O)NC2=O)O[C@@H](CO)[C@@H](O)[C@@H]1O`, the MIC was 1 µg/mL (≈ 0.566 µM) in assay [1]; 1.5 µg/mL (≈ 0.849 µM) in assay [2]; 1.5 µg/mL (≈ 0.849 µM) in assay [3]; 1 µg/mL (≈ 0.566 µM) in assay [4]; 2 µg/mL (≈ 1.13 µM) in assay [5]; 2 µg/mL (≈ 1.13 µM) in assay [6]. In addition, the results for the MIC in assay [7] and in assay [8] were 3 µg/mL (≈ 1.7 µM) and 2 µg/mL (≈ 1.13 µM), respectively.

Turning to `CCCCCCCCCC(=O)N[C@@H](Cc1c[nH]c2ccccc12)C(=O)N[C@H](CC(N)=O)C(=O)N[C@@H](CC(=O)O)C(=O)N[C@@H]1C(=O)NCC(=O)N[C@@H](CCCN)C(=O)N[C@@H](CC(=O)O)C(=O)N[C@H](C)C(=O)N[C@@H](CC(=O)O)C(=O)NCC(=O)N[C@H](CO)C(=O)N[C@@H]([C@H](C)CC(=O)O)C(=O)N[C@@H](CC(=O)c2ccccc2N)C(=O)O[C@@H]1C`, the minimal inhibitory concentration (MIC) in assay [1] came to 0.5 µg/mL (≈ 0.309 µM); in assay [2], 0.75 µg/mL (≈ 0.463 µM); in assay [3] it was 0.75 µg/mL (≈ 0.463 µM); in assay [4], 0.38 µg/mL (≈ 0.234 µM); in assay [5], 0.75 µg/mL (≈ 0.463 µM); in assay [6], 4 µg/mL (≈ 2.47 µM). Further, the MIC in assay [7] and in assay [8] was 4 µg/mL (≈ 2.47 µM) each time.

On to `CC(=O)NC[C@H]1CN(c2ccc(N3CCOCC3)c(F)c2)C(=O)O1` [LINEZOLID], for which the minimum inhibitory concentration (MIC) in assay [6] amounted to 1 µg/mL (≈ 2.96 µM); in assay [8] it was 1.5 µg/mL (≈ 4.45 µM).

As for `Cc1onc(-c2ccccc2)c1C(=O)N[C@@H]1C(=O)N2[C@@H]1SC(C)(C)[C@@H]2C(=O)O` [OXACILLIN], the MIC in assay [1] is 32 µg/mL (≈ 79.7 µM); in assay [2], more than 256 µg/mL; in assay [3], more than 256 µg/mL; in assay [4] it was 16 µg/mL (≈ 39.9 µM); in assay [5], more than 256 µg/mL; in assay [6], 1.5 µg/mL (≈ 3.74 µM). Moreover, the MIC was 3 µg/mL (≈ 7.47 µM) in assay [7] and 1 µg/mL (≈ 2.49 µM) in assay [8].

Take `CN[C@H](CC(C)C)C(=O)N[C@H]1C(=O)N[C@@H](CC(N)=O)C(=O)N[C@H]2C(=O)N[C@H]3C(=O)N[C@H](C(=O)N[C@H](C(=O)O)c4cc(O)cc(O)c4-c4cc3ccc4O)[C@H](O)c3ccc(c(Cl)c3)Oc3cc2cc(c3O[C@@H]2O[C@H](CO)[C@@H](O)[C@H](O)[C@H]2O[C@H]2C[C@](C)(N)[C@H](O)[C@H](C)O2)Oc2ccc(cc2Cl)[C@H]1O` [VANCOMYCIN]: the MIC in assay [1] was 1.5 µg/mL (≈ 1.04 µM); in assay [2], 1.5 µg/mL (≈ 1.04 µM); in assay [4], 1.5 µg/mL (≈ 1.04 µM); in assay [7], 3 µg/mL (≈ 2.07 µM).
